What was measured:
[1] = target: Recombinant human TDO comprising amino acids 19-407 (Homo sapiens (Human), UniProt P48775); assay: TDO2 enzymatic assay (TDO inhibitory activity); type: biochemical; details: 15 nM enzyme, 200 μM L-tryptophan, pH7, 30 min pre-incubation, NFK quantified by LCMS; mean values if measured multiple times; read-out: hTDO activity (IC50 in nM)
Procedure: 2) Testing Compounds for TDO Inhibitory Activity in a TDO2 Enzymatic Assay:
Recombinant human TDO comprising amino acids 19-407 with a N-terminal hexahistidine tag expressed in E. coli and purified to homogeneity is incubated at a final concentration of 15 nM in assay buffer consisting of 75 mM phosphate buffer at pH7 supplemented with 100 μM ascorbic acid, 50 U/ml Catalase, 0.01% BSA, and 0.01% Tween 20 (protocol modified from Seegers et al, JBS 2014). Example compounds are serially diluted in DMSO, further diluted in phosphate buffer, and added to the reaction mixture at final concentrations ranging from 10 μM to 0.5 nM. The final DMSO concentration is 0.6%. Following a pre-incubation of 30 minutes at RT, the reaction is started by the addition of L-tryptophan at a final concentration of 200 μM in assay buffer. After 30 minutes of incubation at RT, 3 μL of the reaction mixture are transferred to a 384 deep well plate containing 25 μL of deionized water. 100 μl of 200 nM L-Tryptophan-(indole-d5) in cold 100% methanol are added followed by a 10 minutes centrifugation at 4,000 rpm at 4° C. An additional 75 μL of deionized water are then added and followed by a 10 minutes centrifugation at 4,000 rpm at 4° C. The product of the reaction N′-Formylkynurenine (NFK) is quantified by LCMS and normalized to the L-Tryptophan-(indole-d5) signal. Samples with 0.6% DMSO (0% effect) and a TDO/IDO inhibitor (100% effect) are used as control samples to set the parameters for the non-linear regression necessary for the determination of the half-maximal inhibitory concentration (IC50) for each compound. For each compound concentration the percentage of activity compared to 0% and 100% effect is calculated as average±STDEV (each concentration measured in duplicate). IC50 values and curves are generated with XLfit software (IDBS) using Dose-Response One Site model 203 (four parameter logistic curve model). When compounds are measured multiple times, mean values are given.

[2] = target: Recombinant full-length human IDO1 (Homo sapiens (Human), UniProt P14902); assay: IDO1 enzymatic assay (IDO inhibitory activity); type: biochemical; details: 2 nM enzyme, 5 μM L-tryptophan, pH6.5, 30 min pre-incubation, NFK quantified by LCMS; mean values if measured multiple times; read-out: hIDO activity (IC50 in nM)
Procedure: 1) Testing Compounds for IDO Inhibitory Activity in an IDO1 Enzymatic Assay:
Recombinant full-length human IDO1 with a N-terminal hexahistidine tag expressed in E. coli and purified to homogeneity is incubated at a final concentration of 2 nM in assay buffer consisting of 37.5 mM phosphate buffer at pH6.5 supplemented with 10 mM sodium L-ascorbate, 0.45 μM methylene blue, 50 U/ml catalase, 0.01% BSA, and 0.01% Tween 20 (protocol modified from Seegers et al, JBS 2014). Example compounds are serially diluted in DMSO, further diluted in phosphate buffer, and added to the enzyme at final concentrations ranging from 10 μM to 0.5 nM. The final DMSO concentration is 0.6%. Following a pre-incubation of 30 minutes at RT, the reaction is started by the addition of L-tryptophan at a final concentration of 5 μM in assay buffer. After 30 minutes of incubation at RT, 3 μL of the reaction mixture are transferred to a 384 deep well plate containing 25 μL of deionized water. 100 μl of 200 nM L-Tryptophan-(indole-d5) in cold 100% methanol are added followed by a 10 minutes centrifugation at 4,000 rpm at 4° C. An additional 75 μL of deionized water are then added and followed by a 10 minutes centrifugation at 4,000 rpm at 4° C. The product of the reaction N′-Formylkynurenine (NFK) is quantified by LCMS and normalized to the L-Tryptophan-(indole-d5) signal. Samples with 0.6% DMSO (0% effect) and a TDO/IDO inhibitor (100% effect) are used as control samples to set the parameters for the non-linear regression necessary for the determination of the half-maximal inhibitory concentration (IC50) for each compound. For each compound concentration the percentage of activity compared to 0% and 100% effect is calculated as average ±STDEV (each concentration measured in duplicate). IC50 values and curves are generated with XLfit software (IDBS) using Dose-Response One Site model 203 (four parameter logistic curve model). When compounds are measured multiple times, mean values are given.

Sequence of Recombinant human TDO comprising amino acids 19-407 (P48775 19-406 limits assumed): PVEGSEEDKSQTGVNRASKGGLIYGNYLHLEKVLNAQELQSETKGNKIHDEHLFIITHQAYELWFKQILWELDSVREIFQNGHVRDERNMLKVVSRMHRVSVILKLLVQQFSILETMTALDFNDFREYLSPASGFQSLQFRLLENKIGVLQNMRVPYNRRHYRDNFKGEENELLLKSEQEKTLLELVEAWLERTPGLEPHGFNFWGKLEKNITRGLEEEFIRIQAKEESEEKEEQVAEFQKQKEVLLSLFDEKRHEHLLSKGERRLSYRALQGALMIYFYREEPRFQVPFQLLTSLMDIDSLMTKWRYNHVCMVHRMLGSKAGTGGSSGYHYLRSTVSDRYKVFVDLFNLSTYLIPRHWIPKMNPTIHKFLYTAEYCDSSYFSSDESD
Sequence of Recombinant full-length human IDO1 (P14902 whole entry): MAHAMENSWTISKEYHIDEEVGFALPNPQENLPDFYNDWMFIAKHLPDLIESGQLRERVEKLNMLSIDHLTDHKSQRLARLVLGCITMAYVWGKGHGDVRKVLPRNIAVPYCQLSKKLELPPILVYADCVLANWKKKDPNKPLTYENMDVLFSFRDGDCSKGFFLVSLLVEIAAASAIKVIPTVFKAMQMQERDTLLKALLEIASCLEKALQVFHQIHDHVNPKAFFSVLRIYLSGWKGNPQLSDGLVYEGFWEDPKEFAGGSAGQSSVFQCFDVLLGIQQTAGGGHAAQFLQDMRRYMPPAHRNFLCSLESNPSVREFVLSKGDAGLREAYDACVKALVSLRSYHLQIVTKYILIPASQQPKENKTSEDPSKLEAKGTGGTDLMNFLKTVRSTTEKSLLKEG

IC50 [1] [nM]	IC50 [2] [nM]	Structure (SMILES)
2830	511	CC(C)C1CCC(CC(O)c2c(C3CC3)sc3cncn23)CC1 (racemic) [Example 85, rac-1-(2-Cyclopropyl-imidazo[5,1-b]thiazol-3-yl)-2-(4-isopropyl-cyclohexyl)-ethanol]
2780	511	CC(C)(C)C1CCC(C(O)c2c(C3CC3)sc3cncn23)CC1 (racemic) [Example 86, rac-(4-tert-Butyl-cyclohexyl)-(2-cyclopropyl-imidazo[5,1-b]thiazol-3-yl)-methanol]
3100	820	OC(CC1CCC(C2CCC2)CC1)c1c(C2CC2)sc2cncn12 (racemic) [Example 87, rac-2-(4-Cyclobutyl-cyclohexyl)-1-(2-cyclopropyl-imidazo[5,1-b]thiazol-3-yl)-ethanol]
246	382	OC(c1c(-c2ccccc2)sc2cncn12)C1CCCCC1 (racemic) [Example 92, rac-Cyclohexyl-(2-phenyl-imidazo[5,1-b]thiazol-3-yl)-methanol]
496	296	OC(CC1CCCCC1)c1c(-c2ccccc2)sc2cncn12 (racemic) [Example 93, rac-2-Cyclohexyl-1-(2-phenyl-imidazo[5,1-b]thiazol-3-yl)-ethanol]
181	144	OC(c1c(-c2ccsc2)sc2cncn12)C1CCCCC1 (racemic) [Example 94, rac-Cyclohexyl-(2-thiophen-3-yl-imidazo[5,1-b]thiazol-3-yl)-methanol]
386	313	OC(CC1CCCCC1)c1c(-c2ccsc2)sc2cncn12 (racemic) [Example 95, rac-2-Cyclohexyl-1-(2-thiophen-3-yl-imidazo[5,1-b]thiazol-3-yl)-ethanol]
39.9	10.5	CCc1sc2cncn2c1C(O)C1CCCCC1 (racemic) [Example 96, rac-Cyclohexyl-(2-ethyl-imidazo[5,1-b]thiazol-3-yl)-methanol]
583	435	CC(C)Cc1sc2cncn2c1C(O)C1CCCCC1 (racemic) [Example 98, rac-Cyclohexyl-(2-isobutyl-imidazo[5,1-b]thiazol-3-yl)-methanol]
1070	837	CC(C)Cc1sc2cncn2c1C(O)CC1CCCCC1 (racemic) [Example 99, rac-2-Cyclohexyl-1-(2-isobutyl-imidazo[5,1-b]thiazol-3-yl)-ethanol]
299	6.63	CCc1sc2cncn2c1C(O)CC1CCCCC1 (racemic) [Example 100, rac-2-Cyclohexyl-1-(2-ethyl-imidazo[5,1-b]thiazol-3-yl)-ethanol]
1780	70.1	OC(c1c(C2CC2)sc2cncn12)C1CCC(C2CCC2)CC1 (racemic) [Example 103, rac-(4-Cyclobutyl-cyclohexyl)-(2-cyclopropyl-imidazo[5,1-b]thiazol-3-yl)-methanol]
104	10.6	CC1(C(O)c2c(C3CC3)sc3cncn23)CCCCC1 (racemic) [Example 105, rac-(2-Cyclopropyl-imidazo[5,1-b]thiazol-3-yl)-(1-methyl-cyclohexyl)-methanol]
190	13.6	Cc1sc2cncn2c1C(O)C1CC(C)(C)C1 (racemic) [Example 109, rac-(3,3-Dimethyl-cyclobutyl)-(2-methyl-imidazo[5,1-b]thiazol-3-yl)-methanol]
912	9.81	CC1(C)CC(C(O)c2c(C(F)(F)F)sc3cncn23)C1 (racemic) [Example 110, rac-(3,3-Dimethyl-cyclobutyl)-(2-trifluoromethyl-imidazo[5,1-b]thiazol-3-yl)-methanol]
2430	101	OC(CC1CCCC1)c1c(C(F)(F)F)sc2cncn12 (racemic) [Example 111, rac-2-Cyclopentyl-1-(2-trifluoromethyl-imidazo[5,1-b]thiazol-3-yl)-ethanol]
206	149	Cc1sc2cncn2c1C(O)C1CCCC1 (racemic) [Example 113, rac-Cyclopentyl-(2-methyl-imidazo[5,1-b]thiazol-3-yl)-methanol]
1960	84.1	CC1CCC(C(O)c2c(C(F)(F)F)sc3cncn23)CC1 (racemic) [Example 115, rac-(4-Methyl-cyclohexyl)-(2-trifluoromethyl-imidazo[5,1-b]thiazol-3-yl)-methanol]
7280	447	CC1(C)CCC(CC(O)c2c(C(F)(F)F)sc3cncn23)CC1 (racemic) [Example 118, rac-2-(4,4-Dimethyl-cyclohexyl)-1-(2-trifluoromethyl-imidazo[5,1-b]thiazol-3-yl)-ethanol]
881	342	OC(c1c(-c2cccnc2)sc2cncn12)C1CCCCC1 (racemic) [Example 124, rac-Cyclohexyl-(2-pyridin-3-yl-imidazo[5,1-b]thiazol-3-yl)-methanol]
> 10200	209	Cn1cc(-c2sc3cncn3c2C(O)C2CCCCC2)cn1 (racemic) [Example 125, rac-Cyclohexyl-[2-(1-methyl-1H-pyrazol-4-yl)-imidazo[5,1-b]thiazol-3-yl]-methanol]
1010	3100	Cc1ccc(-c2sc3cncn3c2C(O)C2CCCCC2)cc1 (racemic) [Example 126, rac-Cyclohexyl-(2-p-tolyl-imidazo[5,1-b]thiazol-3-yl)-methanol]
1990	3090	COc1ccc(-c2sc3cncn3c2C(O)C2CCCCC2)cc1 (racemic) [Example 127, rac-Cyclohexyl-[2-(4-methoxy-phenyl)-imidazo[5,1-b]thiazol-3-yl]-methanol]
595	36.8	CCCc1sc2cncn2c1C(O)CC1CCCCC1 (racemic) [Example 129, rac-2-Cyclohexyl-1-(2-propyl-imidazo[5,1-b]thiazol-3-yl)-ethanol]
153	49.5	CCCc1sc2cncn2c1C(O)C1CCCCC1 (racemic) [Example 130, rac-Cyclohexyl-(2-propyl-imidazo[5,1-b]thiazol-3-yl)-methanol]
1330	11.3	COC1CCC(CC(O)c2c(C3CC3)sc3cncn23)CC1 (racemic) [Example 131, rac-1-(2-Cyclopropyl-imidazo[5,1-b]thiazol-3-yl)-2-(4-methoxy-cyclohexyl)-ethanol]
591	44.3	OC(c1c(C(F)(F)F)sc2cncn12)C1CCCC1 (racemic) [Example 132, rac-Cyclopentyl-(2-trifluoromethyl-imidazo[5,1-b]thiazol-3-yl)-methanol]
2800	757	OC(CC1CCC(C2CCCC2)CC1)c1c(C2CC2)sc2cncn12 (racemic) [Example 134, rac-2-(4-Cyclopentyl-cyclohexyl)-1-(2-cyclopropyl-imidazo[5,1-b]thiazol-3-yl)-ethanol]

Source: patent US11267824B2, “Inhibitors of indoleamine 2,3-dioxygenase and/or tryptophan 2,3-dioxygenase” (IDORSIA PHARMACEUTICALS LTD, priority 2017, dated 2022)
